Assay results: patent US11466034B2, “Compound functioning as bromodomain protein inhibitor, and composition” (Betta Pharmaceuticals Co., Ltd., priority 2017, dated 2022)
pIC50: −log10 of the molar value.

How the values were obtained:
[1] = Pharmacokinetic assay in male SD rats, single gavage; assay type: in vivo; details: Sprague-Dawley (SD), rat, plasma
Protocol: Male SD rats were offered by Beijing Vital River Laboratory Animal Technology Co., Ltd., the rats were divided into groups of 3, and the suspension of the test sample (5 mg/kg-20 mg/kg) was given by single gavage. The animals were fasted overnight before the experiment, the fasting time was from 10 hours before the administration to 4 hours after the administration. Blood was collected at 0.25, 0.5, 1, 2, 4, 7, and 24 hours after administration. Blood was collected from fundus venous plexus, and placed in EDTA-K2 anticoagulation tube. The sample was centrifuged at 4° C. and 4000 rpm for 10 min, the plasma was transferred into centrifuge tubes and the compound to be test was extracted by protein precipitation, the extract was analyzed by LC-MS/MS.

[2] = biological target: BRD4(D1) (Homo sapiens (Human), UniProt O60885); test: Inhibitory activity against BRD4(D1), HTRF assay; assay type: binding
Protocol: (§1) (+)-JQ1 was used as comparison compound, to evaluated the inhibitory activity of compounds of the invention against BRD4(D1) and BRD4(D2) in vitro.
(§2) The assays of BRD4 (D1) and BRD4 (D2) were conducted in a 384-well polystyrene plate. The test compounds were first serially diluted in DMSO and the test compound/DMSO were transferred to 384-well plates. The final concentration of DMSO in the assay was 0.1%. 2 volumes of protein/peptide mixture were added into 384-well plates, then 2 volumes of assay mixture were added, and shake for 30 s. The plate was incubated at room temperature for 2 h. Then the HTRF signal on EnVision was readed.
(§3) Use equation (1) to fit the date in Excel to obtain the value of the inhibition rate. Inhibition rate (%)=(maximum value−signal value)/(maximum value−minimum value)*100 Equation(1):
(§4) IC50 determination was performed by fitting the data using GraphPad Prism 5.0 software and equation (2). Y=bottom+(Top−bottom)/(1+10^((Log IC50−X)*HillSlope)); Equation(2): wherein, Y represents the percentage of inhibition (%); X represents the concentration of test compounds.
(§5) The IC50 data of the examples were provided in the following table, wherein, A stands for IC50<100 nM; B stands for IC50 is 100-300 nM; C stands for IC50>300 nM.

[3] = biological target: BRD4(D2) (Homo sapiens (Human), UniProt O60885); test: Inhibitory activity against BRD4(D2), HTRF assay; assay type: binding
Protocol: as §1, §2, §3, §4, §5

[4] = Stability test of Compound 19 crystalline form I (XRD); assay type: physicochemical

| SMILES | AUC(0-t) ([1]; oral dose 10 mg/kg) [ng·h/mL] | Cmax ([1]; oral dose 10 mg/kg) [ng/mL] | half-life ([1]; oral dose 10 mg/kg) [h] | pIC50 ([2]; numeric values) | pIC50 ([3]; numeric values) | pIC50 ([2]; class symbols) | pIC50 ([3]; class symbols) | further results |
| --- | --- | --- | --- | --- | --- | --- | --- | --- |
| CCS(=O)(=O)Nc1cc(-c2cn(C)c(=O)c3[nH]ccc23)nc2c1ncn2Cc1ccc(F)cc1F [Example 59, N-(3-(2,4-difluorobenzyl)-5-(6-methyl-7-oxo-6,7-dihydro-1H-pyrrolo[2,3-c]pyridin-4-yl)-3H-imidazo[4,5-b]pyridin-7-yl)ethanesulfonamide] | – | – | – | 8.92 | 9.30 | – | – | AUC(0-t) ([1]; oral dose 5 mg/kg): 10200 ng·h/mL; Cmax ([1]; oral dose 5 mg/kg): 3290 ng/mL; half-life ([1]; oral dose 5 mg/kg): 2.3 h |
| Cn1cc(-c2cnc3cnn(Cc4ccc(Cl)cc4)c3c2)c2cc[nH]c2c1=O [Example 39, 4-(1-(4-chlorobenzyl)-1H-pyrazolo[4,3-b]pyridin-6-yl)-6-methyl-1,6-dihydro-7H-pyrrolo[2,3-c]pyridin-7-one] | 24000 | 1700 | 4.1 | 7.67 | 8.10 | – | – | – |
| Cc1nc2ncc(-c3cn(C)c(=O)c4[nH]ccc34)nc2n1Cc1ccc(C(F)(F)F)cc1 [Crystalline Form I of compound 19, 6-methyl-4-(2-methyl-1-(4-(trifluoromethyl)benzyl)-1H-imidazo[4,5-b]pyrazin-6-yl)-1H-pyrrolo[2,3-c]pyridin-7(6H)-one] | – | – | – | – | – | – | – | solid form stability (XRD) ([4]; 25° C.-60% RH for 10 days): no solid form change; solid form stability (XRD) ([4]; 40° C.-75% RH for 14 days): no solid form change; solid form stability (XRD) ([4]; dried at 80° C. for 24 hours): no solid form change |
| CCS(=O)(=O)Nc1cc(-c2cn(C)c(=O)c3[nH]ccc23)nc2c1ncn2Cc1cc(C(F)(F)F)ccc1F [Example 61, N-(3-(2-fluoro-5-(trifluoromethyl)benzyl)-5-(6-methyl-7-oxo-6,7-dihydro-H-pyrrolo[2,3-c]pyridin-4-yl)-3H-imidazo[4,5-b]pyridin-7-yl)ethanesulfonamide] | – | – | – | – | – | > 7.00 | > 7.00 | – |
| CCS(=O)(=O)Nc1cc(-c2cn(C)c(=O)c3[nH]ccc23)nc2c1ncn2Cc1ccc(C(F)(F)F)cc1 [Example 58, N-(5-(6-methyl-7-oxo-6,7-dihydro-1H-pyrrolo[2,3-c]pyridin-4-yl)-3-(4-(trifluoromethyl)benzyl)-3H-imidazo[4,5-b]pyridin-7-yl)ethanesulfonamide] | 5100 | 1960 | 2.3 | 8.80 | 9.30 | – | – | – |
| CCS(=O)(=O)Nc1cc(-c2cn(C)c(=O)c3[nH]ccc23)nc2c1nc(C)n2Cc1ccc(F)cc1F [Example 64, N-(3-(2,4-difluorobenzyl)-2-methyl-5-(6-methyl-7-oxo-6,7-dihydro-1H-pyrrolo[2,3-c]pyridin-4-yl)-3H-imidazo[4,5-b]pyridin-7-yl)ethanesulfonamide] | – | – | – | 8.96 | 9.30 | – | – | AUC(0-t) ([1]; oral dose 6.7 mg/kg): 5590 ng·h/mL; Cmax ([1]; oral dose 6.7 mg/kg): 1480 ng/mL; half-life ([1]; oral dose 6.7 mg/kg): 3.5 h |
| CCS(=O)(=O)Nc1cc(-c2cn(C)c(=O)c3[nH]ccc23)cc2c1nc(C)n2Cc1ccc(Cl)c(C(F)(F)F)c1 [Example 50, N-(2-methyl-6-(6-methyl-7-oxo-6,7-dihydro-1H-pyrrolo[2,3-c]pyridin-4-yl)-1-(3-(trifluoromethyl)-4chlorobenzyl)-1H-benzo[d]imidazol-4-yl)ethanesulfonamide] | – | – | – | – | – | > 7.00 | > 7.00 | – |
| CCS(=O)(=O)Nc1cc(-c2cn(C)c(=O)c3[nH]ccc23)cc2c1nc(C)n2Cc1cccc(Cl)c1 [Example 53, N-(2-methyl-6-(6-methyl-7-oxo-6,7-dihydro-1H-pyrrolo[2,3-c]pyridin-4-yl)-1-(3-chlorobenzyl)-1H-benzo[d]imidazol-4-yl)ethanesulfonamide] | – | – | – | – | – | > 7.00 | > 7.00 | – |
| COc1ccc(Cn2c(C)nc3ncc(-c4cn(C)c(=O)c5[nH]ccc45)cc32)cc1 [Example 2, 4-(1-(4-methoxybenzyl)-2-methyl-1H-imidazo[4,5-b]pyridin-6-yl)-6-methyl-1H-pyrrolo[2,3-c]pyridin-7(6H)-one] | – | – | – | 7.98 | 8.52 | – | – | – |

More lines, main results first:

| AUC(0-t) ([1]; oral dose 10 mg/kg) [ng·h/mL] | Cmax ([1]; oral dose 10 mg/kg) [ng/mL] | half-life ([1]; oral dose 10 mg/kg) [h] | pIC50 ([2]; numeric values) | pIC50 ([3]; numeric values) | pIC50 ([2]; class symbols) | pIC50 ([3]; class symbols) | SMILES | further results |
| --- | --- | --- | --- | --- | --- | --- | --- | --- |
| 2290 | 224 | 3.4 | – | – | – | – | Cc1nc2ncc(-c3cn(C)c(=O)c4[nH]ccc34)nc2n1Cc1ccc(Cl)cc1 [Example 18, 4-(1-(4-chlorobenzyl)-2-methyl-1H-imidazo[4,5-b]pyrazin-6-yl)-6-methyl-1H-pyrrolo[2,3-c]pyridin-7(6H)-one] | – |
| 9430 | 730 | 4.5 | 8.04 | 8.80 | – | – | Cc1nc2ncc(-c3cn(C)c(=O)c4[nH]ccc34)nc2n1Cc1ccc(C(F)(F)F)cc1 [Example 19, 6-methyl-4-(2-methyl-1-(4-(trifluoromethyl)benzyl)-1H-imidazo[4,5-b]pyrazin-6-yl)-1H-pyrrolo[2,3-c]pyridin-7(6H)-one] | – |
| – | – | – | – | – | > 7.00 | > 7.00 | Cc1nc2ncc(-c3cn(C)c(=O)c4[nH]ccc34)nc2n1Cc1cc(F)cc(C(F)(F)F)c1 [Example 25, 4-(1-(3-fluoro-5-trifluoromethylbenzyl)-2-methyl-1H-imidazo[4,5-b]pyrazin-6-yl)-6-methyl-1H-pyrrolo[2,3-c]pyridin-7(6H)-one] | AUC(0-t) ([1]; oral dose 20 mg/kg): 13500 ng·h/mL; Cmax ([1]; oral dose 20 mg/kg): 1230 ng/mL; half-life ([1]; oral dose 20 mg/kg): 12.1 h |
| 2830 | 407 | 3.3 | – | – | > 7.00 | > 7.00 | Cc1nc2ncc(-c3cn(C)c(=O)c4[nH]ccc34)nc2n1Cc1cccc(C(F)(F)F)c1 [Example 23, 4-(1-(3-trifluoromethylbenzyl)-2-methyl-1H-imidazo[4,5-b]pyrazin-6-yl)-6-methyl-1H-pyrrolo[2,3-c]pyridin-7(6H)-one] | – |
| 8500 | 1000 | 3.8 | – | – | > 7.00 | > 7.00 | Cc1nc2ncc(-c3cn(C)c(=O)c4[nH]ccc34)nc2n1Cc1ccc(Cl)c(C(F)(F)F)c1 [Example 27, 4-(1-(3-trifluoromethyl-4-chlorobenzyl)-2-methyl-1H-imidazo[4,5-b]pyrazin-6-yl)-6-methyl-1H-pyrrolo[2,3-c]pyridin-7(6H)-one] | – |
